Legend:
[1] = system: NIH3T3 cells stably expressing the KFERQ-PS-Dendra reporter; experiment: CMA activity in cells with KFERQ-PS-Dendra reporter (fluorescent puncta per cell); format: cell-based, mouse; conditions: increasing concentrations; 12 h, 16 h or 24 h treatment
Experimental: (§1) FIG. 10. Characterization of the brain permeable chemical activator of CMA and effect in a mouse model of Frontotemporal dementia-related proteotoxicity. (A) Chemical structure of AR7 and CA77.1. (B) Quantification of the effect of adding increasing concentrations of AR7 and CA77.1 to NIH3T3 cells stably expressing the KFERQ-PS-Dendra reporter. CMA activity was quantified after 16 h treatment as the average of fluorescent puncta per cell. (n>800 cells per condition). (C) Autophagic flux in NIH3T3 cells incubated at 37° C. for 16 h with 20 µM AR7 or CA77.1 or without additions (none). Where indicated lysosomal protease inhibitors (PI) were added to the cells 6 h before lysis. Left: representative immunoblot. […] Right: quantification of LC3-II flux as the difference in LC3-II levels in cells treated with PI relative to untreated. […] (D) Quantification of the effect of adding increasing concentrations of AR7 and CA77.1 to NIH3T3 cells stably expressing the KFERQ-PS-Dendra reporter. CMA activity was quantified after 12 h or 24 h treatment as the average of fluorescent puncta per cell. […] Representative immunoblot of 4-5 mice per genotype and treatment (L) and densitometric quantification of AT8 as monomer [Kruskal-Wallis statistic=20.48, p<0.0001] […] (O, P) Quantification of the number of Iba1-positive microglial cells per mm^2 in the hippocampus [Kruskal-Wallis statistic=10.55, p=0.0051] […]

NIH3T3 cells = experiment: Macroautophagic flux (LC3-II flux with/without lysosomal protease inhibitors); format: cell-based, mouse; conditions: 20 μM, 16 h
Experimental: as §1

[2] = Pharmacokinetic analysis in mice brain after p.o. and i.v. administration; format: in vivo; conditions: p.o. 10 mg/Kg and i.v. 1 mg/kg
KFERQ-Dendra mice = experiment: CMA activation in brain of KFERQ-Dendra mice; conditions: administered in vivo
Source text: To test this possibility, we measured CMA in a mouse model of tau-mediated proteotoxicity expressing mutant human tau (hTau^P301L) under the Thy 1.2 promotor (line pR5). We crossed hTau^P301L mice with a transgenic mouse model that expresses systemically a KFERQ-tagged fluorescent protein Dendra2 (KFERQ-Dendra), recently developed by our group. This reporter protein, when targeted for degradation via CMA, highlights lysosomes as fluorescent puncta, that can be counted as read out of CMA activity.

[3] = Blood cell count and histopathology of peripheral organs (liver, lung, kidney) after daily oral administration; format: in vivo; conditions: after 3 months of daily treatment

CC(=O)Nc1ccc(-c2cnc3cc(Cl)ccc3n2)cc1 [CA77.1]
CMA activity in vitro [1]: activates CMA in vitro in dose- and time-dependent manner | effect on macroautophagy (LC3-II flux) (NIH3T3 cells): without affecting macroautophagy | brain penetrance and pharmacokinetics [2]: brain penetrance with favorable pharmacokinetics | activation of CMA in brain in vivo (KFERQ-Dendra mice): activation of CMA in brain of KFERQ-Dendra mice | blood or major organs toxicity [3]: absence of blood or major organs toxicity
